Data reported in patent US20260184663A1, “INDENE COMPOUNDS, PHARMACEUTICAL COMPOSITIONS THEREOF, AND THEIR THERAPEUTIC APPLICATIONS” (NucMito Pharmaceuticals co. Ltd., priority 2022, published 2026).

Legend:
Type in all cases: cell-based
[1] = tested on: MDA-MB-231 (breast cancer); assay: Antiproliferative activity (CCK-8 cell viability), MDA-MB-231; details: Homo sapiens, 72 h, read-out: Antiproliferative activity in cancerous cells, MDA-MB-231 (inhibition of cell growth); for inhibition at 3.3 µM: Compound concentration: 3.3 μM; for inhibition at 10 µM: Compound concentration: 10 μM
In short: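 In this CCK-8 viability assay, MDA-MB-231 cells maintained in Dulbecco's modified Eagle's medium containing 10% fetal bovine serum were placed in 96-well plates (2,000-5,000 cells/well) and treated with compound for 72 h at 37° C. A 4 h incubation with 10 μL CCK-8 followed, plates were read at 450 nm, and viability was expressed against DMSO vehicle wells across replicates.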

[2] = tested on: HepG2 (liver cancer); assay: Antiproliferative activity (CCK-8 cell viability), HepG2; details: Homo sapiens, 72 h, read-out: Antiproliferative activity in cancerous cells, HepG2 (inhibition of cell growth); for inhibition at 3.3 µM: Compound concentration: 3.3 μM; for inhibition at 10 µM: Compound concentration: 10 μM
In short: (§1)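 Cells were seeded at 2,000-5,000/well (HeLa in MEM, HepG2 and SW480 in DMEM, A549 in F-12K, all with 10% FBS) and treated with compound at 3.3, 10 or 30 μM for 72 h at 37° C. CCK-8 was added for 4 h, absorbance was read at 450 nm, and viability was expressed relative to DMSO-treated wells.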

[3] = tested on: SW480 (colon cancer); assay: Antiproliferative activity (CCK-8 cell viability), SW480; details: Homo sapiens, 72 h, read-out: Antiproliferative activity in cancerous cells, SW480 (inhibition of cell growth); for inhibition at 3.3 µM: Compound concentration: 3.3 μM; for inhibition at 10 µM: Compound concentration: 10 μM
In short: as §1

[4] = tested on: B16F10 (malignant melanoma); assay: Antiproliferative activity (CCK-8 cell viability), B16F10; details: Mus musculus, 72 h, read-out: Antiproliferative activity in cancerous cells, B16F10 (inhibition of cell growth); for inhibition at 3.3 µM: B16-F10, Compound concentration: 3.3 μM; for inhibition at 10 µM: B16-F10, Compound concentration: 10 μM
In short: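 Attached B16F10 cells in 96-well plates were incubated with compound at 37° C for 72 h, followed by 10 μL CCK-8 reagent per well and a further 4 h incubation. A multi-well plate reader measured absorbance at 450 nm. Percent viability across replicates was calculated against DMSO vehicle-treated cells.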

[5] = tested on: A431 (epidermoid carcinoma); assay: Antiproliferative activity (CCK-8 cell viability), A431; details: Homo sapiens, 72 h, read-out: Antiproliferative activity in cancerous cells, A431 (inhibition of cell growth); for inhibition at 3.3 µM: A-431, Compound concentration: 3.3 μM; for inhibition at 10 µM: A-431, Compound concentration: 10 μM
In short: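 Cell viability of compound-treated A431 cells was measured with a Cell Counting Kit-8. Each well received 10 μL of CCK-8 after 72 h of compound exposure, followed by 4 h incubation at 37° C. and a 450 nm plate-reader measurement. Percent viability was calculated relative to DMSO controls across replicates.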

[6] = tested on: A549 (lung adenocarcinoma); assay: Antiproliferative activity (CCK-8 cell viability), A549; details: Homo sapiens, 72 h, read-out: Antiproliferative activity in cancerous cells, A549 (inhibition of cell growth); for inhibition at 3.3 µM: Compound concentration: 3.3 μM; for inhibition at 10 µM: Compound concentration: 10 μM
In short: as §1

[7] = tested on: HeLa (cervical cancer); assay: Antiproliferative activity (CCK-8 cell viability), HeLa; details: Homo sapiens, 72 h, read-out: Antiproliferative activity in cancerous cells, HELA (inhibition of cell growth); for inhibition at 3.3 µM: Compound concentration: 3.3 μM; for inhibition at 10 µM: Compound concentration: 10 μM
In short: as §1

| Structure (SMILES) | inhibition at 3.3 µM [1] | inhibition at 10 µM [1] | inhibition at 3.3 µM [2] | inhibition at 10 µM [2] | inhibition at 3.3 µM [3] | inhibition at 10 µM [3] | inhibition at 3.3 µM [4] | inhibition at 10 µM [4] | inhibition at 3.3 µM [5] | inhibition at 10 µM [5] | inhibition at 3.3 µM [6] | inhibition at 10 µM [6] | inhibition at 3.3 µM [7] | inhibition at 10 µM [7] |
| --- | --- | --- | --- | --- | --- | --- | --- | --- | --- | --- | --- | --- | --- | --- |
| CC1=C(CC(=O)O)c2cc(F)ccc2/C1=C\c1ccc(COc2ccc(Cl)cc2)cc1C [B73, (Z)-2-(1-(4-((4-Chlorophenoxy)methyl)-2-methylbenzylidene)-5-fluoro-2-methyl-1H-inden-3-yl)acetic acid] | < 30% | < 30% | < 30% | ≥ 50% | 30 to 50% | ≥ 50% | 30 to 50% | 30 to 50% | ≥ 50% | ≥ 50% | < 30% | ≥ 50% | 30 to 50% | ≥ 50% |
| CC1=C(CC(=O)O)c2cc(F)ccc2/C1=C\c1ccc(COc2ccc(F)cc2)cc1Br [B74, (Z)-2-(1-(2-Bromo-4-((4-fluorophenoxy)methyl)benzylidene)-5-fluoro-2-methyl-1H-inden-3-yl)acetic acid] | < 30% | 30 to 50% | ≥ 50% | ≥ 50% | < 30% | < 30% | 30 to 50% | ≥ 50% | < 30% | 30 to 50% | 30 to 50% | 30 to 50% | < 30% | ≥ 50% |
| CC1=C(CC(=O)O)c2cc(F)ccc2/C1=C\c1ccc(COCc2ccc(F)cc2)cc1 [B101, (Z)-2-(5-Fluoro-1-(4-(((4-fluorobenzyl)oxy)methyl)benzylidene)-2-methyl-1H-inden-3-yl)acetic acid] | ≥ 50% | ≥ 50% | 30 to 50% | ≥ 50% | < 30% | ≥ 50% | < 30% | ≥ 50% | < 30% | 30 to 50% | 30 to 50% | ≥ 50% | < 30% | ≥ 50% |
| CC1=C(CC(=O)O)c2cc(F)ccc2/C1=C\c1ccc(COCc2ccc(C)cc2)cc1 [B102, (Z)-2-(5-Fluoro-2-methyl-1-(4-(((4-methylbenzyl)oxy)methyl)benzylidene)-1H-inden-3-yl)acetic acid] | 30 to 50% | ≥ 50% | 30 to 50% | ≥ 50% | < 30% | ≥ 50% | < 30% | ≥ 50% | ≥ 50% | ≥ 50% | < 30% | ≥ 50% | < 30% | ≥ 50% |
| CC1=C(CC(=O)O)c2cc(F)ccc2/C1=C\c1ccc(COCc2ccc(Cl)cc2)cc1 [B103, (Z)-2-(1-(4-(((4-Chlorobenzyl)oxy)methyl)benzylidene)-5-fluoro-2-methyl-1H-inden-3-yl)acetic acid] | 30 to 50% | ≥ 50% | 30 to 50% | ≥ 50% | < 30% | ≥ 50% | < 30% | ≥ 50% | ≥ 50% | ≥ 50% | < 30% | ≥ 50% | < 30% | ≥ 50% |
| CC1=C(CC(=O)O)c2cc(F)ccc2/C1=C\c1ccc(COCc2ccccc2)cc1 [B104, (Z)-2-(1-(4-((Benzyloxy)methyl)benzylidene)-5-fluoro-2-methyl-1H-inden-3-yl)-acetic acid] | 30 to 50% | ≥ 50% | < 30% | ≥ 50% | ≥ 50% | ≥ 50% | ≥ 50% | ≥ 50% | ≥ 50% | ≥ 50% | 30 to 50% | 30 to 50% | ≥ 50% | ≥ 50% |
| CC1=C(CC(=O)O)c2cc(F)ccc2/C1=C\c1ccc(COCc2ccc(F)c(F)c2)cc1 [B105, (Z)-2-(1-(4-(((3,4-Difluorobenzyl)oxy)methyl)benzylidene)-5-fluoro-2-methyl-1H-inden-3-yl)acetic acid] | 30 to 50% | ≥ 50% | < 30% | ≥ 50% | 30 to 50% | ≥ 50% | 30 to 50% | ≥ 50% | 30 to 50% | ≥ 50% | 30 to 50% | ≥ 50% | ≥ 50% | ≥ 50% |
| CC1=C(CC(=O)O)c2cc(F)ccc2/C1=C\c1ccc(COCc2ccc(F)c(Cl)c2)cc1 [B106, (Z)-2-(1-(4-(((3-Chloro-4-fluorobenzyl)oxy)methyl)benzylidene)-5-fluoro-2-methyl-1H-inden-3-yl)acetic acid] | ≥ 50% | ≥ 50% | < 30% | ≥ 50% | ≥ 50% | ≥ 50% | < 30% | ≥ 50% | 30 to 50% | ≥ 50% | 30 to 50% | ≥ 50% | ≥ 50% | ≥ 50% |
| CCc1ccc2c(c1)C(CC(=O)O)=C(C)/C2=C/c1ccc(COCc2ccc(F)cc2)cc1 [B107, (Z)-2-(5-Ethyl-1-(4-(((4-fluorobenzyl)oxy)methyl)benzylidene)-2-methyl-1H-inden-3-yl)acetic acid] | < 30% | 30 to 50% | < 30% | < 30% | ≥ 50% | ≥ 50% | < 30% | 30 to 50% | ≥ 50% | 30 to 50% | 30 to 50% | ≥ 50% | < 30% | ≥ 50% |
| COc1ccc(COCc2ccc(/C=C3/C(C)=C(CC(=O)O)c4cc(F)ccc43)cc2)cc1Cl [B108, (Z)-2-(1-(4-(((3-Chloro-4-methoxybenzyl)oxy)methyl)benzylidene)-5-fluoro-2-methyl-1H-inden-3-yl)acetic acid] | ≥ 50% | ≥ 50% | < 30% | ≥ 50% | < 30% | ≥ 50% | 30 to 50% | ≥ 50% | 30 to 50% | ≥ 50% | 30 to 50% | ≥ 50% | 30 to 50% | ≥ 50% |
| CC1=C(CC(=O)O)c2cc(I)ccc2/C1=C\c1ccc(COCc2ccc(F)cc2)cc1 [B109, (Z)-2-(1-(4-(((4-Fluorobenzyl)oxy)methyl)benzylidene)-5-iodo-2-methyl-1H-inden-3-yl)acetic acid] | ≥ 50% | ≥ 50% | < 30% | ≥ 50% | < 30% | ≥ 50% | < 30% | ≥ 50% | < 30% | ≥ 50% | 30 to 50% | ≥ 50% | ≥ 50% | ≥ 50% |
